Patent US12440466B2, “Fatty acid derivatives for treating non-alcoholic steatohepatitis” (BASF AS, priority 2017, dated 2025)
Marks after values point to notes of the source that are not given here.

Tests used:
[1] = tested on: CDAA/high-fat fed mice; assay: Hepatic collagen fiber number, thickness and length by nonlinear multiphoton optical imaging, CDAA/high-fat diet mouse model; format: in vivo; details: Compound A 56 mg/kg bw per day orally
Experimental: (§1) Mice were fed either choline-sufficient (CS) or choline deficient high-fat diets (31% total calories; “CDAA/high-fat”). The NASH inducing diet was instigated 6 weeks prior to the commencement of treatment in order to design the study as a treatment/reversal set-up rather than prophylaxis.
In Biological Examples 6 and 7, mice were fed either CS or CDAA/high-fat diets as described above. […] The effect on hepatic collagen fiber number, thickness, and length was determined via nonlinear multiphoton optical imaging system in isolated liver samples from vehicle control (n=8), Compound A (n=9) and GLP-1R (n=8) fed groups.

[2] = tested on: TIMP-1a mRNA; assay: Hepatic TIMP-1a mRNA expression by qPCR, CDAA/high-fat diet mouse model; format: in vivo; details: CDAA/high-fat fed mice; Compound A 0.3 mmol/kg bw/day oral; GLP-1a 0.4 mg/kg once weekly i.p.; alone or combined
Experimental: as §1
(§2) Studies were performed in male C56BL/6J mice (9 weeks old). Mice were divided into 6 experimental groups (n=9 per group) containing either CS or CDAA/high-fat diets, as described above. The NASH inducing CDAA/high fat diet was instigated 6 weeks prior to the commencement of treatment in order to assess treatment/reversal rather than prophylaxis. […] Compound A was administered orally as admix to the high-fat diet whilst GLP-1 agonist was delivered via intraperitoneal injection (i.p.). Fibrosis, inflammation and metabolism related transcripts levels were measured by quantitative real-time polymerase chain reaction (qPCR) in isolated liver tissue.

[3] = tested on: hepatic transcriptome; assay: Hepatic transcriptome (gene expression probes) in APOE*3.CETP transgenic mice; format: in vivo, mouse; details: Compound A at a fraction of the dose of the omega-3 ethyl esters, data not shown
[4] = tested on: CETP; assay: CETP expression in APOE*3.CETP mice; format: in vivo, mouse; details: Compound A
[5] = tested on: α-smooth muscle actin (SMA); assay: Hepatic α-SMA content by quantitative IHC in ob/ob AMLN mice; format: in vivo, mouse; details: 8 weeks; for α-SMA (total and % of fractional area content): vs vehicle
Experimental: (§3) Obese diet-induced B6.V-Lepob/Jrj mice (ob/ob) are consistently fibrosis (liver) prone when cholesterol (2%), 40% fat (containing 18% trans-fatty acids) and 20% fructose are added to a high-caloric diet (i.e., AMLN high-fat diet). ob/ob mice on AMLN diet (termed ‘ob/ob AMLN mice’) develop steatohepatitis and fibrosis within a shorter timeframe ([…]) compared with wild-type C57BL/6 mice (AMLN mice) fed the same diet. ob/ob AMLN mice provide an obese diet-induced model of NASH that also allows the study of effects on glycemic control. Development of NASH in the ob/ob AMLN model is confirmed by biopsy.
(§4) In Biological Examples 10, 13-14, and 16-18, studies were performed in male ob/ob mice (5 weeks old) fed an AMLN high-fat diet for 18 weeks, then randomized into 6 groups (n=10 per group) to receive either Compound A (at 3 different daily doses, 45 mg/kg, 90 mg/kg or 135 mg/kg) via diet, 30 mg/kg bw per day obeticholic acid (OCA) via diet, or no treatment (vehicle) for a further 8 weeks. Assessment of NASH related parameters and fibrosis was made at study end by quantitative immune histochemistry (IHC) measurements.

[6] = tested on: ob/ob AMLN mice; assay: Plasma triglyceride and total cholesterol levels in ob/ob AMLN mice; format: in vivo, mouse; details: 8 weeks
Experimental: as §3, §4

[7] = tested on: ob/ob AMLN mice; assay: Hepatic hydroxyproline (HYP) content in ob/ob AMLN mice; format: in vivo, mouse; details: 8 weeks; for HYP content, total: p<0.01; for HYP content, relative: p<0.05
Experimental: as §3, §4
To corroborate the anti-fibrotic effects seen with quantitative IHC, hepatic concentrations of hydroxyproline (HYP) were measured, as shown in FIG. 6E and FIG. 6F.

[8] = tested on: TNF-α mRNA; assay: Hepatic TNF-α mRNA expression by qPCR, CDAA/high-fat diet mouse model; format: in vivo; details: CDAA/high-fat fed mice
From the text: as §1
After 6 weeks of either the CS- or CDAA diet, mice were orally administered Compound A or comparison Compound N, both at 2 doses, 0.15 mmol/kg bw/day (low-dose, LD) and 0.3 mmol/kg bw per day (high-dose, HD). The test substances were administered orally as admix to the high-fat diet. Hepatic fibrosis was assessed by both measurement of hydroxyproline (HYP) content and Sirius Red (SR) morphometry. Fibrosis, inflammation and metabolism related transcripts levels were measured by quantitative real-time polymerase chain reaction (qPCR).
as §2

[9] = tested on: LX-2 human hepatic stellate cells; assay: LX-2 stellate cell proliferation by BrdU incorporation; format: cell-based; details: LX-2 cells, 24 hours
Experimental: Stellate cells are resident liver cells and the major cell type involved in the initiation and progression of liver fibrosis. In Biological Example 20, in vitro studies were performed on cultured human stellate cells (LX-2 cells) to assess direct effects of Compound A on these cells. Cells were treated for 24 hours with Compound A (10 μM, 25 μM, 50 μM, or 75 μM) or oleic acid (OA; 75 μM) and bromodeoxyuridine (BrdU) incorporation was assessed to determine effects on proliferation. A MTS (3-(4,5-dimethylthiazol-2-yl)-5-(3-carboxymethoxyphenyl)-2-(4-sulfophenyl)-2H-tetrazolium) assay was used to determine cell viability.
Cell proliferation of LX-2 human hepatic stellate cells treated for 24 hours with 10-75 μM of Compound A or oleic acid (OA) (75 μM) was assessed by BrdU incorporation. The results are normalised mean values ±S.E.M. of 5 independent experiments for icosabutate and 2 independent experiments for OA. […] The reduction in proliferation by Compound A was 25-34% at 24 hours whereas OA had no effect. The comparisons were made by one-way ANOVA with Dunnett's correction for multiple comparisons.

CC/C=C\C/C=C\C/C=C\C/C=C\C/C=C\CCCCOC(CC)C(=O)O (stereo not drawn) [Compound A, 2-((5Z,8Z,11Z,14Z,17Z)-icosa-5,8,11,14,17-pentaenyloxy)butanoic acid]
collagen fiber length [1]: slight increases | collagen fiber thickness [1]: slight increases | short (<8.5 μm) and thin (<3.5 μm) collagen fibers [1]: almost complete disappearance | reduction of collagen fiber numbers ([1]; p=0.01): 51% | TIMP-1a (relative mRNA expression) [2]: 2*** | gene expression probes significantly up- or down-regulated in the liver [3]: > 1094 | CETP expression [4]: significantly reduce CETP expression | area percentage of α-SMA content compared to pre-treatment biopsy ([5]; Compound A 45 mg/kg): non-significant trend | area percentage of α-SMA content compared to pre-treatment biopsy ([5]; Compound A 90 mg/kg): non-significant trend | α-SMA (total and % of fractional area content) ([5]; Compound A 90 mg/kg): markedly reduced | area percentage of α-SMA content compared to pre-treatment biopsy ([5]; Compound A 135 mg/kg): decreased | α-SMA (total and % of fractional area content) ([5]; Compound A 135 mg/kg): markedly reduced | plasma total cholesterol levels ([6]; Compound A 90 mg/kg): comparable reductions | plasma triglyceride levels ([6]; Compound A 90 mg/kg): comparable reductions | plasma total cholesterol levels ([6]; Compound A 135 mg/kg): comparable reductions | plasma triglyceride levels ([6]; Compound A 135 mg/kg): comparable reductions | HYP content, total ([7]; Compound A 90 mg/kg): reduced | HYP content, relative ([7]; Compound A 90 mg/kg): reduced | HYP content, total ([7]; Compound A 135 mg/kg): reduced | HYP content, relative ([7]; Compound A 135 mg/kg): reduced | TNF-α (relative mRNA expression) ([8]; Compound A 0.3 mmol/kg bw/day oral, GLP-1a 0.4 mg/kg once weekly i.p., alone or combined): 0.65*** | TNF-a (relative mRNA expression) ([8]; HD 0.3 mmol/kg bw per day): 0.65*** | TNF-a (relative mRNA expression) ([8]; LD 0.15 mmol/kg bw/day): 0.75*** | proliferation (BrdU incorporation) compared to OA or vehicle ([9]; 25 μM, p<0.005): less proliferative | proliferation (BrdU incorporation) compared to OA or vehicle ([9]; 50 μM, p<0.0001): less proliferative | proliferation (BrdU incorporation) compared to OA or vehicle ([9]; 75 μM, p<0.005): less proliferative | reduction in proliferation (BrdU incorporation) ([9]; Compound A 25-75 μM): 25-34%
